Data reported in publication PMC8868285, “Pharmacological Inhibition of Epac1 Averts Ferroptosis Cell Death by Preserving Mitochondrial Integrity” (Antioxidants, 2022).

Key:
[1] = system: retinal glial cells (RGC); parameters: method as in PMID 31918438; conditions: cited from earlier work
[2] = system: HT-22 cells; assay: MTT cell viability assay; assay type: cell-based, mouse
Method: (§1) Cell viability and metabolic activity of cells was first assessed using a colorimetric 3-(4,5-dimethylthiazol-2-yl)-2,5-diphenyltetrazolium Bromide (MTT) (Sigma–Aldrich Chemie GmbH, Steinheim, Germany, #M5655) reduction assay. Cells in a 96-well plate format (8–10,000 cells/well) were incubated with the MTT solution (0.5 mg/mL) for a maximum of 1 h at 37 °C. Afterward, the MTT-containing solution was entirely removed, and the 96-well plate was incubated at −80 °C for at least 2 h. To allow formazan to uniformly disperse in the medium, dimethyl sulfoxide (DMSO) (Sigma–Aldrich Chemie GmbH, Steinheim, Germany, #D8418, Lot# SHBH9942) was administered to the cells for 1 h at 37 °C with continuous shaking. The absorbance values were determined by Synergy™H1 (Bad Friedrichshall, Germany) Hybrid MultiMode Reader at 570 nm with a 630 nm reference filter. The absorbance values of untreated healthy cells or cells treated with DMSO 1% (used as a solvent for various pharmacological applications) were regarded as 100% of cell viability. […] HT-22 cells were treated with the following conditions: control condition (solvent), drug of interest, erastin, and pre- or co-treatment with erastin and drug of interest. Cells as appropriate were pre-treated for 30 min with the drug of interest before the addition of erastin. xCELLigence ®RTCA MP system (ACEA BIO, Amsterdam, The Netherlands) was used to measure cell impedance in real time. The xCELLigence ®RTCA MP system is a label-free real-time cell-based assay, suitable for continuous monitoring of alteration/modifications of the morphology of cells. Continuous cell monitoring was performed by using an E-plate 96 and the cellular impedance or cell resistance was assessed every 15 min for 24 h.

[3] = system: HT-22 cells; assay: Mitochondrial superoxide, MitoSOX FACS
Method: (§2) Flow cytometry analysis using the CytoFLEXS benchtop flow cytometer (Beckman Coulter Life Sciences, Indianapolis, IN, USA) was used to evaluate intracellular parameters that are associated with not only oxidative stress but also mitochondrial dysfunction, and cell death. HT-22 cells (40,000 cells/well) seeded in 24-well plates were treated with various conditions. Treatment groups included: control condition (DMSO 1%), erastin 1 µM or 1.5 µM, CE3F4 100 µM, and co-treatment of erastin and CE3F4. Three separate wells were analyzed for each condition and the same number of counts (10,000/well) were measured by flow cytometry. At least three independent experiments were performed, and the Kaluza Analysis 1.5 software was employed for quantification of data.
MitoSOX dye (Invitrogen, Oregon City, OR, USA, #M36008, Lot#1924466) was used to evaluate mitochondrial ROS. The MitoSOX dye is able to permeate live cells and also selectively target mitochondria where it is swiftly oxidized by superoxides but not by other reactive oxygen species. […] Incubation of HT-22 cells with MitoSOX™ 1.25 μM dye was done for 30 min at 37 °C. Fluorescence excitation and detection were done at 488 nm and 690/50 nm respectively.

[4] = system: HT-22 cells; assay: Mitochondrial morphology (MitoTracker Deep Red, categories I-III); assay type: cell-based, mouse; conditions: erastin 1 μM alone
Method: Mitochondrial morphology was assessed using imaging of HT-22 cells stained with MitoTracker™Deep Red FM (Invitrogen, Oregon City, OR, USA, #M22426). Cells were treated with either erastin 1 µM, CE3F4 100 µM, or co-treated with erastin 1 µM and CE3F4 100 μM for 18 h. After the treatment, cells were incubated with 200 nM MitoTracker™Deep Red FM for 30 min at 37 °C. Untreated cells were included as controls. 4% paraformaldehyde (PFA) was used for fixation and detection of the MitoTracker fluorescence was achieved by 620 nm (excitation) and 700 ± 75 nm (detection). 500 cells per condition were counted and grouped into three different categories, based on their mitochondrial morphology/shape. The analysis and categorization of mitochondria was done by an investigator without previous knowledge of the various experimental conditions. Category I included healthy cells with mitochondria that form an elongated tubular network that is distributed equally throughout the cytosol. It could also include short mitochondria, but distributed in the cytosol. On the other hand, Category II included cells which contained large, and fragmented/granulated mitochondria around the nucleus. […] Category III represented damaged and dying cells with observed small rounded mitochondria of varying sizes and in proximity to the nucleus.. At least three independent experiments were performed.

[5] = system: HT-22 cells; assay: Extracellular flux analysis (Seahorse), oxygen consumption rate; assay type: cell-based, mouse
Method: Cellular Oxygen Consumption Rate (OCR) was measured by using an XFe96 extracellular flux analyzer (Seahorse Bioscience, Billerica, MA, USA) which also entailed the mitochondrial stress test as described previously. HT-22 cells (10,000 cells/well) were seeded onto the XFe96-well cell culture microplate and incubated at 37 °C, 5% CO2. 24 h before the assay, the growth medium was replaced with a fresh medium containing either DMSO 1%, erastin 1 µM, CE3F4 alone, ESI-05 alone or a co-treatment of erastin with either CE3F4 or ESI-05. Cells in 180 μL of assay non-buffered DMEM medium supplemented with 2 mM glutamine, 4.5 g/L glucose and 1 mM pyruvate, pH 7.35 were incubated for 1 h in a CO2 free incubator at 37 °C. Basal respiration was measured before injecting the inhibitors that included; oligomycin (4 μM; port A)—an ATP synthase inhibitor; 2,4-dinitrophenol (DNP) (Sigma–Aldrich Chemie GmbH, Steinheim, Germany, #34334) (50 μM; port B)—a mitochondrial oxidative phosphorylation uncoupler; and rotenone (Sigma–Aldrich Chemie GmbH, Steinheim, Germany, #R8875) together with antimycin A (Sigma–Aldrich Chemie GmbH, Steinheim, Germany, #A8674) 0.1 μM and 1 μM; port C)—complex I and complex III inhibitors. By using the BCA assay, OCR measurements were normalized to the protein amount in every well. Three independent experiments with six wells per condition were performed, and a one-way ANOVA test was used to determine statistical significance among different groups.

[6] = system: HT-22 cells; assay: Mitochondrial membrane potential, TMRE FACS
Method: as §2
Staining with TMRE™ dye (tetramethylrhodamine-ethyl ester; Invitrogen, Oregon City, OR, USA, #T669) was used to determine loss of mitochondrial membrane potential (MMP) (ΔΨm). […] Collected cells were incubated for 20 min with TMRE 0.2 μM at 37 °C. Fluorescence excitation and detection were done at 488 nm 690/50 nm respectively.

[7] = system: HT-22 cells; assay: Brightfield images of cell morphology; assay type: cell-based, mouse
[8] = system: HT-22 cells; assay: Soluble ROS, CM-DCF FACS; assay type: cell-based, mouse
Method: Soluble ROS was evaluated by CM-DCF fluorescent dye (Invitrogen, Oregon City, OR, USA). CM-DCF passively diffuses into cells, and reacts with glutathione and other thiols following cleavage by intracellular esterases, which in turn exposes the thiol-reactive chloromethyl group. The oxidation that follows results in a fluorescent adduct that is ensnared within the cell. The higher the fluorescence, the more cellular ROS is produced in the cells.

[9] = system: HT-22 cells; assay: Lipid peroxidation, BODIPY FACS; conditions: erastin 1 μM alone, 4 h
Method: as §2
The staining dye BODIPY 2 μM (Invitrogen, Karlsruhe, Germany, # D3861, Lot # 1890330) was used to estimate lipid peroxidation. Erastin treatment was done for 4 h. HT-22 cells were then stained for 30 min at RT, followed by a one-time wash with PBS and finally analyzed. Fluorescence excitation and detection were done at 488 nm and 530 nm respectively.

[10] = system: HT-22 cells; assay: Cell death assessment, FACS analysis of PI staining; conditions: erastin 1 μM alone
Method: as §2
The amount of cell death after stimulation with erastin for 16–17 h was assessed by incubating trypsonized HT-22 cell suspension with propidium iodide (PI) (Invitrogen, Oregon City, OR, USA, #V13242, Lot #2008168) in a binding buffer. Incubation with the dye was for 30 min at RT. Fluorescence was detected at 494/518 and 535/617 for FITC and PI respectively.

[11] = system: HT-22 cells; assay: xCELLigence real-time cell impedance measurement; assay type: cell-based, mouse; conditions: erastin alone, dose response
Method: as §1, with “Cells as appropriate were pre-treated for 30 min with the drug of interest before the addition of erastin. xCELLigence ®RTCA MP system (ACEA BIO, Amsterdam, The Netherlands) was used to measure cell impedance in real time. The xCELLigence ®RTCA MP system is a label-free real-time cell-based assay, suitable for continuous monitoring of alteration/modifications of the morphology of cells.” left out

[12] = system: Epac; parameters: method as in BioLog, Cat.No. C 041; conditions: no literature reference printed; ref BioLog, Cat.No. C 041; cited from earlier work
[13] = system: Epac2; conditions: ESI-05, Epac2 inhibitor; cited from earlier work
[14] = system: traumatic brain injury; parameters: method as in PMID 29740274; conditions: cited from earlier work
[15] = system: secondary brain injury induced by intracerebral hemorrhage; parameters: method as in PMID 30607901; conditions: cited from earlier work
[16] = system: isolated mitochondria from HT-22 cells; assay: High-resolution respirometry (Oroboros) of isolated mitochondria; parameters: species or system mouse
Method: Mitochondria were isolated from harvested HT-22 cells (4–8 × 10^7 cultivated in T75 flasks) using a semi-automated pump-controlled cell rupture system (PCC) (0.71 mL/min) with syringes (SGE, Trajan© Scientific, Ringwood, Australia) attached to a cell homogenizer (Isobiotech, EMBL, Heidelberg, Germany) (bead size of 10 μm suitable for HT-22 cells) and superimposed on a pump (ProSense B.V, Oosterhout, The Netherlands, #NE1000). Collected samples were centrifuged at 800 rpm for 10 min at 4 °C. The supernatant was further centrifuged at 9000× g for 10 min at 4 °C. The resulting pellet was the crude mitochondria. Finally, the mitochondria were suspended in an isolation buffer (HEPES 20 mM, sucrose 250 mM EDTA 3 mM, pH 7.5) for subsequent experiments. The whole procedure was executed on ice.
The protein concentration of isolated mitochondria was determined using the Pierce™ BCA Protein Assay Kit (Pierce™ BCA Protein Assay Kit, Thermo Scientific, Rockford, IL, USA, #23225). Respiration of the isolated mitochondria from HT-22 cells was analyzed using the high-resolution respirometry oxygraph O2K (Oroboros Systems, Innsbruck, Austria). The isolated mitochondria (200 μg) prepared as previously described, were treated with either CE3F4, ESI-05, ethanol, or DMSO as appropriate for 25 min, followed by mitochondrial respiration measurements. Mitochondrial state 1 was determined by continuous stirring at 750 rpm in 1 mL of MiR05 buffer (MgCl2 3 mM, lactobionic acid 60 mM, EGTA 0.5 mM taurine 20 mM, KH2PO4 10 mM, D-Sucrose 110 mM, HEPES 20 mM, BSA, essential fatty acid-free1 g/L, pH adjusted to 7.4). DatLab software (Oroboros Systems, Innsbruck, Austria) was used to record real-time oxygen flux per tissue mass (pmol O2. s^−1 × mg^−1) at 37 °C and to perform oxygen polarography. States were described as, State 2: a non-phosphorylating respiration state which was assessed by addition of complex-I linked substrates, 5 mM pyruvate (Sigma–Aldrich Chemie GmbH, Steinheim, Germany #P-2256), and 2 mM malate (Sigma–Aldrich Chemie GmbH, Steinheim, Germany, #374318); State 3: the oxidative-phosphorylation capacity (OXPHOS) state, of complex-I linked activity or basal respiration was achieved by adding a saturating concentration of 0.8 mM ADP (Sigma–Aldrich Chemie GmbH, Steinheim, Germany, #A5285), this allowed for calculation of ADP-coupled repiration; State 4: Achieved by subsequent addition of oligomycin 0.1 μM/mL (Sigma–Aldrich Chemie GmbH, Steinheim, Germany, #O4876) following state 3, oligomycin blocks the ATP-synthase, thereby inhibiting proton passage; State 3U: Was assessed by incremental steps of 1 μM addition of FCCP—theprotonophore carbonyl cyanide 4-(trifluoromethoxy) phenylhydrazone (Sigma–Aldrich Chemie GmbH, Steinheim, Germany, #C2920), this allowed the calculation of the reserve capacity of the Electron Transport Chain (ETC); Finally, sodium dithionite (DTT, Sigma–Aldrich Chemie GmbH, Steinheim, Germany, #15,795-3) was added to reduce all residual oxygen that was present in the chamber and to calibrate the oxygen content in the chamber. The O2 slope (pmol × (mL/s)) of isolated mitochondria was the oxygen concentration and also the initial derivate of the oxygen concentration—a derivative of oxygen consumption. Measurements were recorded in intervals of 2 s by using a background correction after calibration of the polarographic oxygen sensors.

SMILES: CC(C)(C)c1cc(C(=O)/C(C#N)=N/Nc2cccc(Cl)c2)no1 [ESI-09]
- effect on RGC [1]: neuroprotective
- neuroprotection against erastin-induced ferroptosis (MTT) ([2]; ESI-09, 30 μM): dose-dependent neuroprotection

SMILES: CCOc1ccccc1-n1c(C(C)N2CCN(C(=O)COc3ccc(Cl)cc3)CC2)nc2ccccc2c1=O (stereo not shown) [erastin]
- mitochondrial superoxide levels ([3]; erastin 1 μM alone): significant increase and shift towards high ROS levels
- mitochondrial superoxide levels ([3]; erastin 1.5 μM alone): significant increase and shift towards high ROS levels
- mitochondrial morphology [4]: induced pronounced mitochondrial fragmentation
- mitochondrial respiration (OCR) ([5]; erastin 1 μM vs untreated or solvent-treated controls): significant decrease in mitochondrial respiration
- mitochondrial membrane potential (ΔΨm) ([6]; erastin 1 μM alone): significant loss of ΔΨm
- mitochondrial membrane potential (ΔΨm) ([6]; erastin 1.5 μM alone): significant loss of ΔΨm
- cell death (MTT cell viability) ([2]; erastin alone, dose response): dose-dependent cell death
- cell morphology ([7]; erastin 1 μM alone): marked alteration in cell morphology
- ROS level (CM-DCF) ([8]; erastin 1 μM alone): significantly increased
- ROS level (CM-DCF) ([8]; erastin 1.5 μM alone): significantly increased
- lipid peroxidation [9]: increased
- cell death (PI staining) [10]: augmented cell death
- cell death (real-time cell impedance) [11]: dose-dependent cell death

SMILES: CO[C@@H]1[C@@H]2OP(=O)(OCOC(C)=O)OC[C@H]2O[C@H]1n1c(Sc2ccc(Cl)cc2)nc2c(N)ncnc21 (stereo partly shown) [8-pCPT-2-O-Me-cAMP-AM]
- effect on RGC [1]: neurotoxic effects

SMILES: CO[C@@H]1[C@@H]2OP(=O)(O)OC[C@H]2O[C@H]1n1c(Sc2ccc(Cl)cc2)nc2c(N)ncnc21 [8-PCPT-2-O-Me-cAMP]
- neuroprotection against erastin-induced ferroptosis (MTT) ([2]; 8-pCPT 10–100 μM): did not mediate neuroprotection
- AC50 [12]: 1.8 µM

SMILES: Cc1ccc(S(=O)(=O)c2c(C)cc(C)cc2C)cc1 [ESI-05]
- IC50 [13]: 0.4 µM
- neural cell apoptosis after traumatic brain injury [14]: decreased neural cell apoptosis
- neurological deficits after traumatic brain injury [14]: improved other neurological deficits
- mitochondrial respiration (OCR) ([5]; 30 μM ESI-05 + erastin 1 μM vs erastin alone): did not induce any significant difference
- secondary brain injury induced by intracerebral hemorrhage [15]: suppressed secondary brain injury
- neuroprotection against erastin-induced ferroptosis (MTT) ([2]; 100 μM ESI-05 with lower concentrations of erastin): did not mediate neuroprotection
- neuroprotection against erastin-induced ferroptosis (MTT) ([2]; ESI-05 3–30 μM): did not mediate neuroprotection
- neuroprotection against erastin-induced ferroptosis (bright-field microscopy images) ([7]; ESI-05 30 μM + erastin 1 μM): did not mediate neuroprotection
- respiration rate after inhibition of ETC complex V (state 4) ([16]; 10 μM ESI-05): significantly increased
- mitochondrial respiration ([16]; ESI-05 30 μM): does not affect mitochondria respiration
